Experimental data as given in patent US9138512B2, “Implant with a surface layer having a topographic modification” (Biotronik AG, priority 2010, dated 2015).

Key:
[1] = test system: Human umbilical vein endothelial cells (HUVEC); test: HUVEC alignment to the gratings (contact guidance); format: cell-based; conditions: HUVEC on gratings A-10; 50 μM blebbistatin or 10 μM Y27632
Experimental: (§1) For contractility inhibition experiments during endothelial spreading, the cells were treated with DMSO (corresponding v/v), 30 μM ML-7, 10 μM Y27632 or 50 μM blebbistatin. The drugs were dissolved in DMSO (ML-7, blebbistatin) or in distilled water (Y27632) and added to the cells 30 minutes before starting the experiment.
Cell imaging was performed using an inverted Nikon-Ti wide-field microscope (Nikon, Jaw pan) equipped with an Orca R-2 CCD camera (Hamamatsu Photonics, Japan). […] Endothelial spreading on topographic substrates in topographic chips was recorded in parallel time-lapse movies for up to 6 different substrates (a flat control and five different gratings). […]
Collected movies were loaded into ImageJ (National Institutes of Health, USA) and analyzed as follows: In a first step, movies acquired on patterned substrates were filtered by Fast Fourier Transform (FFT). […] The time to onset of spreading on the respective substrates was then measured for each cell detected within all parallel time-lapses acquired. […] A mean time to onset of spreading was calculated for each substrate under analysis by averaging the values measured for all individual cells. HUVEC alignment to the gratings was measured for all cells detected in the last frame of each recorded movie. […]

[2] = test system: Human umbilical vein endothelial cells (HUVEC); test: Time to onset of spreading of HUVEC on substrates (time-lapse microscopy); format: cell-based; conditions: HUVEC on gratings A-10, 50 μM blebbistatin, 10 μM Y27632 or 30 μM ML-7 added 30 minutes before
Experimental: To generate confluent monolayers cells were seeded on COC substrates at high density (60-70×10^4 cell/cm^2) as reported by Lampugnani et al. and cultured for three days. To measure the time to onset of spreading, cells were detached from a subconfluent cell culture and resuspended in pre-warmed medium without antibiotics. The cells were then counted, diluted to reach a concentration of 5×10^4 cells in 1 ml of medium and then seeded onto the substrates.
as §1
Cell imaging was performed using an inverted Nikon-Ti wide-field microscope (Nikon, Jaw pan) equipped with an Orca R-2 CCD camera (Hamamatsu Photonics, Japan). After cell seeding, the topographic chip was placed under the microscope in an incubated chamber (Life Imaging Services, Switzerland), where temperature and CO2 concentration were maintained at 37° C. and 5%, respectively. Images were collected with a 20×, 0.45 NA long-distance objective (Plan Fluor, Nikon). Endothelial spreading on topographic substrates in topographic chips was recorded in parallel time-lapse movies for up to 6 different substrates (a flat control and five different gratings). Before starting the experiment, five non-overlapping positions were chosen within each substrate and stored in a position list. Immediately after cell seeding, the experiment was started to automatically acquire a differential interference contrast (DIC) image at each saved position with a time resolution of 1 minute for a total of one or two hours. Focal drift during the experiments was eliminated using the microscope's PFS autofocus system. At the end of the experiment, the resulting time-lapses were converted into a single 8 bit movie for each imaging field under analysis.
Collected movies were loaded into ImageJ (National Institutes of Health, USA) and analyzed as follows: In a first step, movies acquired on patterned substrates were filtered by Fast Fourier Transform (FFT). This procedure eliminates the scattering generated by the gratings. The time to onset of spreading on the respective substrates was then measured for each cell detected within all parallel time-lapses acquired. […] A mean time to onset of spreading was calculated for each substrate under analysis by averaging the values measured for all individual cells. HUVEC alignment to the gratings was measured for all cells detected in the last frame of each recorded movie. […]

SMILES	average alignment of inhibitor-treated cells to gratings [1] [°]	effect of inhibitor on time to onset of spreading / spreading [2]	effect of inhibitor on time to onset of spreading / spreading ([2]; listed as ML7)
C[C@@H](N)[C@H]1CC[C@H](C(=O)Nc2ccncc2)CC1 [Y27632]	24.7±6.4	no effect	–
Cc1ccc2c(c1)C(=O)C1(O)CCN(c3ccccc3)C1=N2 (stereo not drawn) [Blebbistatin]	26.5±6.5	no effect	–
O=S(=O)(c1cccc2c(I)cccc12)N1CCCNCC1 [ML-7]	–	No spreading could be measured	completely ablates HUVEC spreading
